In data set [1] the test system is HIV-1NL4-3. Kind of data set: In vitro selection of resistant HIV-1 variants in MT-4 cells. In kind it is cell-based. Particulars: HIV-1NL4-3 in MT-4 cells, increasing concentrations. From the text: MT-4 cells (10^5/ml) were exposed to HIV-1NL4-3 (500 TCID50) and cultured in the presence of compounds at an initial concentration of its EC50 value. Viral replication was monitored by the determination of the amount of p24 produced by MT-4 cells. The supernatants were harvested on day 7 and were used to infect fresh MT-4 cells for the next round of culture in the presence of increasing concentrations of each compound. Proviral DNAs obtained from the lysates of infected cells were subjected to sequencing. This selection procedure was carried out until the drug concentration reached 5 μM as previously described[20]–[22]).

For data set [2], the system named is HIV-192UG029 (subtype A, X4). Nature of the data set: p24 production inhibition in PHA-PBMC. The format is cell-based, HIV-1. Particulars: Human immunodeficiency virus 1, read-out: EC50 HIV-192UG029 (subtype A, X4). How it is done: (§1) The susceptibility of HIV-1LAI or HIV-2ROD to various compounds was determined as previously described[20]–[22]. Briefly, MT-2 cells (10^4/ml) were exposed to 100 TCID50 of HIV-1LAI or HIV-2ROD in the presence or absence of various concentrations of compounds in 96-well plates and were incubated at 37 °C for 7 days. After incubation, 100 μl of the medium was removed from each well, 3-(4,5-dimetylthiazol-2-yl)-2,5-diphenyltetrazolium bromide (MTT) solution (10 μl, 7.5 mg/ml in PBS) was added to each well, followed by incubation at 37 °C for 2 h. […] To determine the sensitivity of clinically isolated HIV-1s to compounds, PHA-PBMC (10^6/ml) were exposed to 50 TCID50 of each HIV-1 and cultured in the presence or absence of various concentrations of compounds in 10-fold serial dilutions in 96-well plates. In determining the drug-susceptibility of certain laboratory HIV-1 strains, MT-4 cells were employed as target cells as previously described[23],[24]. MT-4 cells (10^5/ml) were exposed to 100 TCID50 of drug-resistant HIV-1s in the presence or absence of various concentrations of compounds and were incubated at 37 °C. On day 7, the supernatants were harvested and the amounts of p24 were determined by using a fully-automated chemiluminescent enzyme immunoassay system (Lumipulse f: Fujirebio, Tokyo)[35]–[37]. […] All assays were performed in duplicate, and EC50 shown in this report represent average values of two to four independent experiments. PHA-PBMCs were derived from a single donor in each independent experiment. The research protocols described in the present study were carried out in accordance with relevant guidelines and regulations, and were approved in Ethics Committee for Epidemiological and General Research at the Faculty of Life Sciences, Kumamoto University.

The test system of another data set is HIV-1ATV ^R 5μM. Nature of the data set: p24 production inhibition in MT-4 cells. The format is cell-based. Particulars: for EC50: Human immunodeficiency virus 1, MT4, read-out: EC50 HIV-1ATV ^R 5μM, MT-4 cells, p24 Gag production. How it is done:
as §1

The next data set deals with HIV-1APV ^R 5μM. Kind of data set: p24 production inhibition in MT-4 cells. In kind it is cell-based. The following applies: for EC50: Human immunodeficiency virus 1, MT4, read-out: EC50 HIV-1APV ^R 5μM, MT-4 cells, p24 Gag production. How it is done:
as §1

Another data set deals with HIV-1_9510 ^R 36P. Nature of the data set: p24 production inhibition in MT-4 cells. The format is cell-based. Particulars: for EC50: Human immunodeficiency virus 1, MT4, read-out: EC50 HIV-19510RP36; for fold change of EC50 HIV-19510RP36: compared to EC50 for HIV-1NL4-3, Supplemental Table 3. How it is done:
as §1

The test system of data set [3] is HIV-1NL4-3. Nature of the data set: p24 production inhibition in MT-4 cells. The format is cell-based. The following applies: Human immunodeficiency virus 1, MT4, MT-4 cells, p24 Gag production. As for the experimental part: as §1
Another data set relates to HIV-1LPV ^R 5μM. Nature of the data set: p24 production inhibition in MT-4 cells. In kind it is cell-based. Particulars: for EC50: Human immunodeficiency virus 1, MT4, read-out: EC50 HIV-1LPV ^R 5μM, MT-4 cells, p24 Gag production. How it is done:
as §1

Data set [4] in a line: Cytotoxicity against MT-2 cells (MTT assay). In kind it is cell-based. The following applies: human. As for the experimental part: as §1
(In general: Tetrazolium dyes change colour on reduction, which living cells bring about.)

Another data set deals with HIV-1BaL (subtype B, R5). Kind of data set: p24 production inhibition in PHA-PBMC. The format is cell-based. Particulars: Human immunodeficiency virus 1, PHA-PBMC, p24 Gag production. As for the experimental part: as §1
Another data set deals with HIV-1MDRmix DRV ^R 20P. Nature of the data set: p24 production inhibition in PHA-PBMC. The following applies: for EC50: Human immunodeficiency virus 1, read-out: EC50 HIV-1MDRmix DRV ^R 20P, PHA-PBMC, p24 Gag production. The format is cell-based. As for the experimental part: as §1
The test system of another data set is HIV-1MDR/B. Kind of data set: p24 production inhibition in PHA-PBMC. In kind it is cell-based. The following applies: for EC50: Human immunodeficiency virus 1, PHA-PBMC, p24 Gag production. How it is done: as §1
The next data set concerns HIV-1MDR/G. Nature of the data set: p24 production inhibition in PHA-PBMC. The format is cell-based. The following applies: for EC50: Human immunodeficiency virus 1, PHA-PBMC, p24 Gag production. As for the experimental part:
as §1

The subject of data set [5] is HIV-1ME46 (subtype B, X4/R5). Kind of data set: p24 production inhibition in PHA-PBMC. The format is cell-based. The following applies: Human immunodeficiency virus 1, PHA-PBMC, p24 Gag production. How it is done: as §1
For the next data set, the system named is HIV-1MDR/TM. Nature of the data set: p24 production inhibition in PHA-PBMC. In kind it is cell-based. The following applies: for EC50: Human immunodeficiency virus 1, PHA-PBMC, p24 Gag production. As for the experimental part:
as §1

The test system of another data set is HIV-1MDR/C. Kind of data set: p24 production inhibition in PHA-PBMC. The format is cell-based. The following applies: for EC50: Human immunodeficiency virus 1, PHA-PBMC, p24 Gag production. As for the experimental part: as §1
Data set [6] concerns HIV-1ERS104pre (wild-type). Nature of the data set: p24 production inhibition in PHA-PBMC. In kind it is cell-based. Particulars: Human immunodeficiency virus 1, PHA-PBMC, p24 Gag production. As for the experimental part: as §1
Another data set has as its system HIV-1LAI. Kind of data set: microbe, parasite or virus in culture. The following applies: for EC50: Human immunodeficiency virus 1, MT2, MT-2 cells, 100 TCID50, MTT assay, read-out: EC50 Against HIV-1LAI. In kind it is cell-based. As for the experimental part: as §1
A further data set concerns HIV-2ROD. Kind of data set: microbe, parasite or virus in culture. In kind it is cell-based. Particulars: for EC50: Human immunodeficiency virus 2, MT2, MT-2 cells, 100 TCID50, MTT assay, read-out: EC50 Against HIV-2ROD. How it is done: as §1
The mark [7] stands for this setting: number in parentheses, compared to HIV-1NL4-3.
[8] abbreviates: compared to EC50 for HIV-1ERS104pre.

From publication PMC5613016, “GRL-09510, a Unique P2-Crown-Tetrahydrofuranylurethane -Containing HIV-1 Protease Inhibitor, Maintains Its Favorable Antiviral Activity against Highly-Drug-Resistant HIV-1 Variants in vitro” (Scientific Reports, 2017) come the findings set out here.

Where only a bound is given, the exact number is not on record here.

`Cc1nnc(C(=O)NC(C)(C)c2nc(C(=O)NCc3ccc(F)cc3)c(O)c(=O)n2C)o1` [RAL, Raltegravir]: in the data set with HIV-1NL4-3 [1], the “passage at which selection concentration reached 5 µM” value is given as not below 20.

Turning to `COC(=O)N[C@H](C(=O)N[C@@H](Cc1ccccc1)[C@@H](O)CN(Cc1ccc(-c2ccccn2)cc1)NC(=O)[C@@H](NC(=O)OC)C(C)(C)C)C(C)(C)C` [ATV, Atazanavir], the EC50 in data set [2] is 6 ± 3 nM; with HIV-1ATV ^R 5μM it was more than 1000 nM; in the data set with HIV-1APV ^R 5μM, 371 ± 8 nM; in the data set with HIV-1_9510 ^R 36P it was 24 ± 1 nM; in the data set on HIV-1NL4-3 [3] (Table 3), 4.3 ± 0.9 nM; in the data set on HIV-1LPV ^R 5μM, 38 ± 1 nM. Besides, the EC50 with HIV-1BaL (subtype B, R5) was 2 ± 1 nM; in the data set on HIV-1MDRmix DRV ^R 20P it was more than 1000 nM; in the data set with HIV-1MDR/B, 360 ± 160 nM; in the data set with HIV-1MDR/G, 30 ± 10 nM; in data set [5], 4.2 ± 0.5 nM; in the data set on HIV-1MDR/TM it was 71 ± 8 nM. Besides, the EC50 with HIV-1MDR/C was 50 ± 20 nM; in data set [6], 3.1 ± 0.6 nM; in the data set on HIV-1LAI, 4 ± 1 nM; in the data set on HIV-2ROD it was 17 ± 3 nM. The “fold change of EC50 HIV-1ATV ^R 5μM” value with HIV-1ATV ^R 5μM (setting [7]) was more than 233. Further, the “fold change of EC50 HIV-1APV ^R 5μM” value with HIV-1APV ^R 5μM (setting [7]) is on record as 86. Moreover, the “fold change of EC50 HIV-19510RP36” value with HIV-1_9510 ^R 36P is recorded as 6. Moreover, the “fold change of EC50 HIV-1LPV ^R 5μM” value in the data set on HIV-1LPV ^R 5μM (setting [7]) is listed as 9. Further, the CC50 in data set [4] amounted to 32400 ± 1000 nM. The “fold change of EC50 HIV-1MDRmix DRV ^R 20P” value in the data set with HIV-1MDRmix DRV ^R 20P (setting [8]) is recorded as more than 323. In addition, the “fold change of EC50 HIV-1MDR/B” value in the data set on HIV-1MDR/B (setting [8]) worked out at 116. Moreover, the “fold change of EC50 HIV-1MDR/G” value in the data set on HIV-1MDR/G (setting [8]) is recorded as 10. Also, the “fold change of EC50 HIV-1MDR/TM” value in the data set with HIV-1MDR/TM (setting [8]) worked out at 23. Further, the “fold change of EC50 HIV-1MDR/C” value in the data set on HIV-1MDR/C (setting [8]) was 16. In addition, the “Selectivity Index (CC50/EC50) MT2/HIV-1LAI” value in the data set on HIV-1LAI (ratio of CC50 to EC50 against HIV-1LAI) was 8,100. In addition, the “Selectivity Index (CC50/EC50) MT2/HIV-2ROD” value with HIV-2ROD (ratio of CC50 to EC50 against HIV-2ROD) is listed as 1,906.

As to `Cc1cccc(C)c1OCC(=O)N[C@@H](Cc1ccccc1)[C@@H](O)C[C@H](Cc1ccccc1)NC(=O)[C@H](C(C)C)N1CCCNC1=O` [LPV, Lopinavir], the EC50 in the data set on HIV-1ATV ^R 5μM was more than 1000 nM; in the data set on HIV-1APV ^R 5μM it was 400 ± 10 nM; in the data set with HIV-1_9510 ^R 36P, 400 ± 20 nM; with HIV-1LPV ^R 5μM, more than 1000 nM; with HIV-1MDRmix DRV ^R 20P, more than 1000 nM; in the data set with HIV-1MDR/B, more than 1000 nM. Further, the EC50 with HIV-1MDR/G came out at 180 ± 20 nM; with HIV-1MDR/TM, 550 ± 90 nM; in the data set on HIV-1MDR/C, 390 ± 50 nM; in data set [6] it was 28 ± 2 nM; in the data set on HIV-1LAI, 23 ± 3 nM; in the data set on HIV-2ROD it was 21 ± 7 nM. This compound displayed a CC50 in [4] of 26700 ± 4200 nM.

For `CC(C)CN(C[C@@H](O)[C@H](Cc1ccccc1)NC(=O)O[C@H]1CO[C@H]2OCC[C@H]21)S(=O)(=O)c1ccc(N)cc1` [DRV, Darunavir], the EC50 in data set [2] is 5.5 ± 0.1 nM; in the data set on HIV-1ATV ^R 5μM, 24 ± 60 nM; with HIV-1APV ^R 5μM, 410 ± 10 nM; with HIV-1_9510 ^R 36P, 41 ± 1 nM; in the data set with HIV-1NL4-3 [3] (Table 3), 4.5 ± 0.4 nM; in the data set on HIV-1LPV ^R 5μM it was 34 ± 5 nM. Besides, the EC50 in the data set with HIV-1BaL (subtype B, R5) was 1.8 ± 0.1 nM; with HIV-1MDRmix DRV ^R 20P, 300 ± 60 nM; with HIV-1MDR/G it was 20 ± 9 nM; in [5], 2.3 ± 0.4 nM; in [6], 4.4 ± 0.9 nM; in the data set with HIV-1LAI, 5 ± 2 nM. Further, the EC50 in the data set on HIV-2ROD was 14 ± 7 nM. This compound also had a CC50 at 7 days in data set [4] of 101000 ± 8800 nM.

For `CC(C)(C)NC(=O)[C@@H]1C[C@@H]2CCCC[C@@H]2CN1C[C@@H](O)[C@H](Cc1ccccc1)NC(=O)[C@H](CC(N)=O)NC(=O)c1ccc2ccccc2n1` [SQV, saquinavir], in the data set with HIV-1_9510 ^R 36P, the EC50 worked out at 41 ± 9 nM and the “fold change of EC50 HIV-19510RP36” value is 2. Moreover, a half-maximal effect in the data set on HIV-1NL4-3 [3] (Supplemental Table 3) (EC50) was put at 18 ± 1 nM.

Usually EC50 stands for the concentration needed to bring the measured effect to its halfway point. What is called CC50 is the concentration giving 50% cytotoxicity. Lower therefore signals greater toxicity to the cells.
